Test results as given in patent US20100105641A1, “Oral Contraceptive Spray” (priority 2006, published 2010).
One block for each molecule: values may come before it.

Key:
[1] = human, in vivo
Experimental: Sixteen healthy female subjects were treated with 0.1 ml of the oral spray as described in Example 1 or with Marvelon® tablets (150 μg desogestrel, 30 μg ethinyl estradiol) in a cross over design. The spray was administered sublingually. Marvelon® was ingested. Serum concentration versus time profiles were obtained for etonogestrel and plasma concentration versus time profiles were obtained for ethinyl estradiol. FIGS. 2, 3, 4 and 5 show the average values of the serum/plasma concentrations versus time profiles.
This leads to the conclusion that a lower dose of either etonogestrel, or ethinyl estradiol, or both is possible for oral mucosal administration.

[2] = Experimental: Solutions were prepared essentially according to the procedure as described in Example 1. The solubility of each one of the active ingredients desogestrel, 3-β-hydroxydesogestrel, 3-keto desogestrel and ethinyl estradiol in these solutions was tested.
[3] = Cross-over study in sixteen healthy female subjects: sublingual oral spray (75 μg etonogestrel) vs ingested Cerazette tablets, serum concentration versus time profiles; type: in vivo, human; conditions: FIGS. 6 and 7; 75 μg etonogestrel spray vs Cerazette tablet
Experimental: Sixteen healthy female subjects were treated with 0.1 ml of oral spray comprising the liquid as depicted in table 6 to administer 75 μg etonogestrel, or with Cerazette® tablets (75 μg desogestrel) in a cross over design. The spray has been administered sublingually. Cerazette® has been ingested. Serum concentration versus time profiles were obtained for etonogestrel.
This leads to the conclusion that a lower dose of either etonogestrel is possible for oral mucosal administration to achieve a similar pharmacological effect.

[4] = exposure of etonogestrel after oral ingestion as its prodrug desogestrel; cited from earlier work

levels of ethinyl estradiol in plasma, oral mucosal administration compared to oral ingestion of equivalent amount using a tablet [1]: much higher levels
SMILES: C#C[C@]1(O)CC[C@H]2[C@@H]3CCc4cc(O)ccc4[C@H]3CC[C@@]21C [Ethinyl Estradiol, ethinyl estradiol]

SMILES: C#C[C@]1(O)CC[C@H]2[C@@H]3CCC4=C[C@@H](O)CC[C@@H]4[C@H]3C(=C)C[C@@]21CC [3-β-Hydroxy-desogestrel, 3-β-hydroxydesogestrel]
Solubility in Liquid 1 [2]: ≧8.8 mg/mL | Solubility in Liquid 2 [2]: ≧7.0 mg/mL | Solubility in Liquid 3 [2]: ≧6.1 mg/mL | Solubility in Liquid 4 [2]: ≧6.9 mg/mL | Solubility in Liquid 5 [2]: ≧8.7 mg/mL

levels of etonogestrel in serum, oral mucosal administration compared to oral ingestion of an equivalent amount of desogestrel using a tablet [3]: much higher levels | levels of etonogestrel in serum, oral mucosal administration compared to oral ingestion of equivalent amount of desogestrel using a tablet [1]: much higher levels
SMILES: C#C[C@]1(O)CC[C@H]2[C@@H]3CCC4=CC(=O)CC[C@@H]4[C@H]3C(=C)C[C@@]21CC [Etonogestrel, 13-ethyl-11methylene-17β-hydroxy-18,19-dinor-17α-pregnen-3-one]
oral bioavailability [4]: about 80%
